Assay results reported in patent publication US10787437B2, “Processes for the preparation of pyrazole derivatives useful as modulators of the 5-HT2A serotonin receptor” (Arena Pharmaceuticals, Inc., priority 2008, dated 2020).

Experiments:
insomnia patients = test: Phase 2 trial, measurements of sleep maintenance versus placebo; assay type: in vivo, human
Text: The data from the APD125 Phase 2 study are consistent with Phase 1 data and support further development of APD125 for the treatment of insomnia patients who have difficulty maintaining sleep.

healthy adults = test: Phase 1 trials, waking EEG; assay type: in vivo, human
normal volunteers = test: Afternoon nap model of insomnia in normal volunteers; assay type: in vivo, human
Text: APD125, a potent and selective 5-HT2A serotonin receptor inverse agonist is a member of the genus disclosed in the European Patent EP1558582. […] Sleep onset latency was not decreased by APD125. In the afternoon nap model, APD125 decreased microarousals, the number of sleep stage shifts, and number of awakenings after sleep onset.

diabetic rats = conditions: cited from earlier work
[1] = tested on: DOCA-salt induced hypertension; conditions: rats; cited from earlier work
[2] = tested on: spontaneously hypertensive rats; conditions: cited from earlier work
glaucoma patients = conditions: cited from earlier work
5-HT2A = 5-HT2A (Homo sapiens, UniProt P28223); conditions: cited from earlier work
5-HT2A, sequence (P28223 whole entry, species assumed): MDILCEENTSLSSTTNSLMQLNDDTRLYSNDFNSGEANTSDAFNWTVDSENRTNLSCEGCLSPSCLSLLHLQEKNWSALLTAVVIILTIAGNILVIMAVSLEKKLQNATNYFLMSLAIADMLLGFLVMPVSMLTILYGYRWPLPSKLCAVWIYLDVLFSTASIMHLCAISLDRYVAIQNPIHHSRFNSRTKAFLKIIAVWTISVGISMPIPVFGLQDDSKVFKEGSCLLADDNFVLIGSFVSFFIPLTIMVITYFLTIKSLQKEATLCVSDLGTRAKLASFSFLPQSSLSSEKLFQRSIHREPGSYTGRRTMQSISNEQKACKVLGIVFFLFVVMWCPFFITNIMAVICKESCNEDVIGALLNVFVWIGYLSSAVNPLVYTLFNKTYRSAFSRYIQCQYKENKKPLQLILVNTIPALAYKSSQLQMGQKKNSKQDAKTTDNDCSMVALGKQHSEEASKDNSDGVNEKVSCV

JC virus = conditions: cited from earlier work
heatstroke = conditions: in vivo; cited from earlier work
lumbar disc herniation = conditions: humans; cited from earlier work
thermal induced pain = conditions: rats, intraperitoneal administration; cited from earlier work
inflammatory pain = conditions: rats, intrathecal or intraperitoneal administration; cited from earlier work
diabetic nephropathy = conditions: 24 months of treatment; cited from earlier work

COc1ccc(NC(=O)Nc2ccc(F)cc2F)cc1-c1c(Br)cnn1C [APD125]
next day cognitive effects (insomnia patients; Phase 2): without any limiting next day cognitive effects | measurements of sleep maintenance (insomnia patients; Phase 2, compared to placebo): statistically significant improvements | dose of maximal vigilance-lowering effects on waking EEG (healthy adults): 40 to 80 mg | effects on waking EEG (healthy adults): vigilance-lowering effects on waking EEG | time of peak effects after dosing (healthy adults; after dosing): 2 to 4 h | REM sleep (normal volunteers; afternoon nap model): at the expense of REM sleep | microarousals (normal volunteers; afternoon nap model): decreased | number of awakenings after sleep onset (normal volunteers; afternoon nap model): decreased | number of sleep stage shifts (normal volunteers; afternoon nap model): decreased | sleep onset latency (normal volunteers; afternoon nap model): not decreased | slow wave sleep and associated parameters (normal volunteers; primarily during the early part of sleep): increased slow wave sleep and associated parameters in a dose-dependent manner

O=CN1CCC(C(=O)NCCN2CCC(=C3c4ccccc4C=Cc4ccccc43)CC2)CC1 [AT-1015]
14.9% reduction in saphenous sensory conduction velocity (diabetic rats): completely reversed | 44.7% reduction in sciatic endoneurial blood flow (diabetic rats): completely reversed

CN1CCN2c3ccccc3Cc3ccccc3C2C1 (stereo not drawn) [Mainserin]
DOCA-salt induced hypertension [1]: prevent

O=C(c1ccc(F)cc1)C1CCN(CCn2c(=O)[nH]c3ccccc3c2=O)CC1 [ketanserin]
blood pressure [2]: stabilize blood pressure | IOP (glaucoma patients): significantly lower | inverse agonist activity at 5-HT2A (5-HT2A): have inverse agonist activity | JC virus infection of human glial cells (JC virus): inhibited | protection during heatstroke (heatstroke): protect against circulatory shocks, intracranial hypertension, and cerebral ischemia

Cc1nc2sccn2c(=O)c1CCN1CCC(=C(c2ccc(F)cc2)c2ccc(F)cc2)CC1 [ritanserin]
inverse agonist activity at 5-HT2A (5-HT2A): have inverse agonist activity | 14.9% reduction in saphenous sensory conduction velocity (diabetic rats): completely reversed | 44.7% reduction in sciatic endoneurial blood flow (diabetic rats): completely reversed | JC virus infection of human glial cells (JC virus): inhibited

COc1cccc(CCc2ccccc2OCC(CN(C)C)OC(=O)CCC(=O)O)c1 (stereo not drawn) [sarpogrelate]
lower back pain, leg pain and numbness associated with sciatica (lumbar disc herniation): effective treatment | IOP (glaucoma patients): significantly lower | analgesic effect on thermal induced pain (thermal induced pain): significant analgesic effect | 14.9% reduction in saphenous sensory conduction velocity (diabetic rats): completely reversed | 44.7% reduction in sciatic endoneurial blood flow (diabetic rats): completely reversed | analgesic effect on inflammatory pain (inflammatory pain): significant analgesic effect | urinary albumin excretion level (diabetic nephropathy): significantly reduced
